Source: ChEMBL document CHEMBL1909046, “DrugMatrix in vitro pharmacology data”

Key:
Cytochrome P450 2E1 = Cytochrome P450 2E1 (Homo sapiens, UniProt P05181); settings: bti-tn-5b1-4; further: in other assays of this panel Not Active means under 50% inhibition at 10 µM
Neutrophil elastase = target: T1, Neutrophil elastase (Homo sapiens, UniProt P08246); format: tissue-based;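 further: inhibition of neutrophil elastase enzyme activity, measured with a p-nitroanilide-linked peptide substrate; in other assays of this panel Not Active means under 50% inhibition at 10 µM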
T1 sequence (P08246 whole entry): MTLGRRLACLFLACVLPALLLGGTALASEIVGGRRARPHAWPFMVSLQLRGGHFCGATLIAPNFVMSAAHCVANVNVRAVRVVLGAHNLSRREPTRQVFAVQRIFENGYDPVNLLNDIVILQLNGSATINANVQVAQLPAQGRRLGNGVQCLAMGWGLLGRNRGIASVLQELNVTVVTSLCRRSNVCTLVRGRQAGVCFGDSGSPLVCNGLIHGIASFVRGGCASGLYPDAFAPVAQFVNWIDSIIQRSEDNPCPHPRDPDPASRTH

[1] = DRUGMATRIX: Glutamate, NMDA, Agonism radioligand binding (ligand: [3H] CGP-39653); format: cell membranes, Rattus norvegicus, Wistar, Cerebral cortex, Membrane; settings: Not Active = under 50% inhibition at 10 µM
[2] = target: Tyrosine-protein kinase Fyn (Homo sapiens, UniProt P06241); experiment: biochemical; format: cell-based, Insect cells; settings: insect cells;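 further: enzymatic inhibition of Fyn kinase activity measured with Poly(Glu:Tyr) as the phosphorylation substrate; in other assays of this panel Not Active means under 50% inhibition at 10 µM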
Chain of Tyrosine-protein kinase Fyn (P06241 whole entry): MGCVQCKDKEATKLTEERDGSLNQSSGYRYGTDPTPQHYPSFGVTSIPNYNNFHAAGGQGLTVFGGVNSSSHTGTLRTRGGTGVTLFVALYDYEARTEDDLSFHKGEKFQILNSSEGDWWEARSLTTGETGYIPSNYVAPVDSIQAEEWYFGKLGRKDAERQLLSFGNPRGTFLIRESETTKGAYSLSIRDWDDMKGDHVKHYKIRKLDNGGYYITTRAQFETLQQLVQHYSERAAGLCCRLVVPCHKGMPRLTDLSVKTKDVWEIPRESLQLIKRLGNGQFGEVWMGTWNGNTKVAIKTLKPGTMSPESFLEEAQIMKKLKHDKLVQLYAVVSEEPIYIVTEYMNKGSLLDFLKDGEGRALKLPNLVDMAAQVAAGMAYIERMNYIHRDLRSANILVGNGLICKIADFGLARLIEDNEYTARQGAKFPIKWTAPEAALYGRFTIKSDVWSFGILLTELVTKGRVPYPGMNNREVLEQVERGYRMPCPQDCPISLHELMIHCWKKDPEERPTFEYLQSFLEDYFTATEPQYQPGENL

[3] = DRUGMATRIX: Phosphodiesterase PDE3 enzyme inhibition (substrate: [3H]cAMP + cAMP); format: tissue-based, Homo sapiens; settings: platelet; Not Active = under 50% inhibition at 10 µM
[4] = target: Sigma non-opioid intracellular receptor 1 (Homo sapiens, UniProt Q99720); experiment: DRUGMATRIX: Sigma1 radioligand binding (ligand: [3H] Haloperidol); format: cell membranes, Jurkat, Membrane; settings: Not Active = under 50% inhibition at 10 µM
Chain of Sigma non-opioid intracellular receptor 1 (Q99720 whole entry): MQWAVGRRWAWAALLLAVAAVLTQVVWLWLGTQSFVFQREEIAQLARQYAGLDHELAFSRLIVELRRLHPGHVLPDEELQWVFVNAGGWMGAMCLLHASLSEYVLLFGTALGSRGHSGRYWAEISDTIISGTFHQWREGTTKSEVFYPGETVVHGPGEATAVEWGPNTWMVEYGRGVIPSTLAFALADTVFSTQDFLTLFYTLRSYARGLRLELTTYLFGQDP

Leukotriene C4 synthase = target: T2, Leukotriene C4 synthase (Cavia porcellus, UniProt A6XA80); format: tissue-based, Lung;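 further: enzyme inhibition assay of leukotriene C4 synthase, using LTA4 as the substrate; in other assays of this panel Not Active means under 50% inhibition at 10 µM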
T2 sequence (A6XA80 whole entry): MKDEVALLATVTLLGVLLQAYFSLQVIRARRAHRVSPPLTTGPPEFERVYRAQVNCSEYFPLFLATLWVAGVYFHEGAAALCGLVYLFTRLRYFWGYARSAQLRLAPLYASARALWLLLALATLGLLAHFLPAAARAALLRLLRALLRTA

Chain of Cytochrome P450 2E1 (P05181 whole entry): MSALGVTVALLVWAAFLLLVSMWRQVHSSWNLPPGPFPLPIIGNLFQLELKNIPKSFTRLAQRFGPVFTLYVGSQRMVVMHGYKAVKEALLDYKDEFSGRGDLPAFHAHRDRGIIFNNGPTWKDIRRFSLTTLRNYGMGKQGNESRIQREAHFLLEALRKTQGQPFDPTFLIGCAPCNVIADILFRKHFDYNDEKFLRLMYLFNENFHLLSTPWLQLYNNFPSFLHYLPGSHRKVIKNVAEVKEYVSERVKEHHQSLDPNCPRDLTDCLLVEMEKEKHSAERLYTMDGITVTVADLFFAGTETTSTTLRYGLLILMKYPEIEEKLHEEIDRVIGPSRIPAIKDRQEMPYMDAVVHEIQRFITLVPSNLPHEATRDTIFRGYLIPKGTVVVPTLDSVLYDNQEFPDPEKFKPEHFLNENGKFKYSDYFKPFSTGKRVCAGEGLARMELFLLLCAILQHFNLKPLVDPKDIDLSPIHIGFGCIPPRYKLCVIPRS

CCN(CC)CCOC(=O)c1ccc(N)cc1 [PROCAINE]
IC50 (Cytochrome P450 2E1): Not Active | Ki (Cytochrome P450 2E1): Not Active | IC50 (Neutrophil elastase): Not Active | IC50 [1]: Not Active | Ki [1]: Not Active | IC50 [2]: Not Active | IC50 [3]: Not Active | Ki [3]: Not Active | IC50 ([4]; jurkat): Not Active | IC50 (Leukotriene C4 synthase): Not Active

CCCN(CCC)C(=O)C(CCC(=O)O)NC(=O)c1ccccc1 (centres undefined) [PROGLUMIDE]
IC50 (Cytochrome P450 2E1): Not Active | Ki (Cytochrome P450 2E1): Not Active | IC50 (Neutrophil elastase): Not Active | IC50 [1]: Not Active | Ki [1]: Not Active | IC50 [2]: Not Active | IC50 [3]: Not Active | Ki [3]: Not Active | IC50 ([4]; jurkat): Not Active | IC50 (Leukotriene C4 synthase): Not Active

NC(=O)c1cnccn1 [PYRAZINAMIDE]
IC50 (Cytochrome P450 2E1): Not Active | Ki (Cytochrome P450 2E1): Not Active | IC50 (Neutrophil elastase): Not Active | IC50 [1]: Not Active | Ki [1]: Not Active | IC50 [2]: Not Active | IC50 [3]: Not Active | Ki [3]: Not Active | IC50 ([4]; jurkat): Not Active | IC50 (Leukotriene C4 synthase): Not Active

OC(CCN1CCCCC1)(c1ccccc1)C1CCCCC1 (centres undefined) [TRIHEXYPHENIDYL]
IC50 (Cytochrome P450 2E1): Not Active | Ki (Cytochrome P450 2E1): Not Active | IC50 (Neutrophil elastase): Not Active | IC50 [1]: Not Active | Ki [1]: Not Active | IC50 [2]: Not Active | IC50 [3]: Not Active | Ki [3]: Not Active | IC50 ([4]; read-out: IC50): 108 nM | Ki ([4]; read-out: Ki): 45 nM | IC50 (Leukotriene C4 synthase): Not Active

Cc1cc2cc3c(C)cc(=O)oc3c(C)c2o1 [TRIOXSALEN]
IC50 (Cytochrome P450 2E1): Not Active | Ki (Cytochrome P450 2E1): Not Active | IC50 (Neutrophil elastase): Not Active | IC50 [1]: Not Active | Ki [1]: Not Active | IC50 [2]: Not Active | IC50 [3]: Not Active | Ki [3]: Not Active | IC50 ([4]; jurkat): Not Active | IC50 (Leukotriene C4 synthase): Not Active

CCCC(CCC)C(=O)O [VALPROIC ACID]
IC50 (Cytochrome P450 2E1): Not Active | Ki (Cytochrome P450 2E1): Not Active | IC50 (Neutrophil elastase): Not Active | IC50 [1]: Not Active | Ki [1]: Not Active | IC50 [2]: Not Active | IC50 [3]: Not Active | Ki [3]: Not Active | IC50 ([4]; jurkat): Not Active | IC50 (Leukotriene C4 synthase): Not Active

CCC1=C[C@@H]2CN(C1)Cc1c([nH]c3ccccc13)[C@@](C(=O)OC)(c1cc3c(cc1OC)N(C)[C@H]1[C@@](O)(C(=O)OC)[C@H](OC(C)=O)[C@]4(CC)C=CCN5CC[C@]31[C@@H]54)C2 [VINORELBINE]
IC50 (Cytochrome P450 2E1): Not Active | Ki (Cytochrome P450 2E1): Not Active | IC50 (Neutrophil elastase): Not Active | IC50 [1]: Not Active | Ki [1]: Not Active | IC50 [2]: Not Active | IC50 [3]: Not Active | Ki [3]: Not Active | IC50 ([4]; jurkat): Not Active | IC50 (Leukotriene C4 synthase): Not Active

CADMIUM DICHLORIDE
IC50 (Cytochrome P450 2E1): Not Active | Ki (Cytochrome P450 2E1): Not Active | IC50 (Neutrophil elastase): Not Active | Ki (Neutrophil elastase): Not Active | IC50 [1]: Not Active | Ki [1]: Not Active | IC50 ([2]; read-out: IC50): 137 nM | IC50 [3]: Not Active | Ki [3]: Not Active | IC50 ([4]; jurkat): Not Active | Ki ([4]; jurkat): Not Active | IC50 (Leukotriene C4 synthase): Not Active | Ki (Leukotriene C4 synthase): Not Active
